Source: US6531636B1, “Synthetic endogenous cannabinoids analogues and uses thereof” (priority 1998, dated 2003)

How the values were obtained:
[1] = test system: rats, mean arterial pressure; experiment: Hypotensive effect in non-anaesthetized cannulated rats; assay type: in vivo; settings: dose 12 mg/Kg
Experimental: To evaluate the potency of the compounds of the present invention as anti-hypertension agents, each compound was dissolved in a mixture of ethanol:emulphor:saline (1:1:18) and administered to non-anaestisized rats, cannulated through the aorta (for injection) and the jugular view (for measurements of blood pressure). […]

mice = experiment: Analgesia, standard hot plate test in mice; assay type: in vivo; settings: intravenous injection in tail vein
Experimental: The novel compounds prepared as described above were evaluated for their potency in […], according to the standard hot plate test, as briefly described hereinafter.
The compounds of the invention (HU-310, HU-313 and HU-314) wee dissolved in a detergent (Emulphomethanol:saline (5:5:90)) mixture and administered by intravenous injection in the tail vein of mice with an injection volume of 0.1 ml/10 g of body weight.

[2] = test system: pigeons suffering from emesia caused by cisplatin; experiment: Antiemetic activity, cisplatin-induced emesis in pigeons; assay type: in vivo; settings: subcutaneous
Experimental: The compounds of the invention were also evaluated for their potency as an antiemetic agent following the procedure described by Feigenbaum et al., [Eur. J. Pharmacol. 169:159-165 (1989, wherein pigeons suffering from emesia caused by an antineoplastic drug (cisplatin) were used as the model.
Accordingly, each compound was dissolved in Emulphor (detergent):ethanol:saline (5:5:90) and administered subcutaneously to the pigeons. The injection volume was 1.0 ml/kg body weight. Reduction of vomiting with 2-O-Arachidonyl glyceryl ether (HU-310) was 50% when using 3.0 mg of the active ingredient per kg body weight.

[3] = test system: female mice, arachidonic acid-induced paw swelling; experiment: Arachidonic acid-induced paw edema in mice; assay type: in vivo; settings: paw volume 30 min after arachidonic acid
Experimental: The potency of each of the compounds of the invention were evaluated for their potency to act as anti-inflammatory agents, according to the method described Calhoun W. et al., [Calhoun W. et al. Agents and Actions 21:306-309 (1987)]. In the method, water was substituted for mercury as the displacement medium. Platelet Activating Factor (PAF) (1.0 μg) or arachidonic acid (1.0 mg) dissolved in […] of a saline buffer containing 5% ethanol were injected subcutaneously into the plantar surface of the right hind paw of ether anaesthetized female mice (20-25 gr). The volume of the right foot was measured to the level of the lateral malleous by water displacement before treatment and 15 min after PAF injection or 30 min after arachidonic injection. The change in paw volume was calculated for each mouse. Table 2 presents the inhibition of archidonic acid induced paw swelling. The values obtained are measured as the increase in paw volume using a plethysmometer. The degree of swelling was expressed as the percentage in drug-treated mice compared to inhibition of paw edema from vehicle (Emulphor:ethanol:saline) treated controls (95% significance by ANOVA. N=5 mice/group). Control animals received peanut oil (50 μl).

CB1 receptor = molecular target: T1, CB1 receptor (Rattus norvegicus, UniProt P20272); experiment: Competitive inhibition of [3H]HU-243 binding to CB1, synaptosomal membranes; settings: [3H]HU-243 60 pM, synaptosomal membrane protein
T1 construct: 4 μg of synaptosomal membrane protein were homogenized in 50 mM Tris-HCl; from tissue; host or cells: synaptosomal membranes (brain tissue)
Experimental: In principle, 4 μg of synaptosomal membrane protein were homogenized in 50 mM Tris-HCl, 2 mM MgCl2 and 1 mM EDTA pH 7.4 to obtain the binding mixture having a final concentration of 60 pM, with which the Ki was determined according to the assay described by Devane et al. [Devane et al. (1992) ibid.]. […] Ki values were calculated according to following known equation: Ki-IC50/(1+[L]/Kd) wherein IC50 is the concentration of a compound that will reduce a specific binding of a given radioligand by 50%; [L] is the concentration of the radioligand used in the assay and Kd is the dissociation constant for the radioligand (see also FIG. 3).

[4] = test system: rabbits with chymotrypsin-induced glaucoma; experiment: Antiglaucoma activity, chymotrypsin-induced stable glaucoma in rabbits; assay type: in vivo; settings: 0.01% in aqueous solution
From the text: Each compound was further evaluated for their potency as agent for treating and/or preventing glaucoma. Accordingly, stable glaucoma was induced in rabbits by injecting into the eye δ-chymotrypsin as described by Mechoulam R. et al., [Mechoulam R. et al., The Therapeutic Potential of Marihuana eds S. Cohen, R. C. Stillman Plenum Press, N.Y., pp. 35-48 (1975)]. As a control, pilocarpine, a standard antiglaucoma drug, was employed showing intraocular pressure (I.O.P.) reduction at a concentration of 0.01% in aqueous solution and provided a period of 30 hours delay in the recovery of the original chymotrypsin-induced IOP.
The compounds of the invention were each dissolved in a detergent (Emulphor:ethanol:saline (5:5:90)) mixture and then further diluted with saline to obtain the desired concentrations.

T1 sequence (P20272 whole entry): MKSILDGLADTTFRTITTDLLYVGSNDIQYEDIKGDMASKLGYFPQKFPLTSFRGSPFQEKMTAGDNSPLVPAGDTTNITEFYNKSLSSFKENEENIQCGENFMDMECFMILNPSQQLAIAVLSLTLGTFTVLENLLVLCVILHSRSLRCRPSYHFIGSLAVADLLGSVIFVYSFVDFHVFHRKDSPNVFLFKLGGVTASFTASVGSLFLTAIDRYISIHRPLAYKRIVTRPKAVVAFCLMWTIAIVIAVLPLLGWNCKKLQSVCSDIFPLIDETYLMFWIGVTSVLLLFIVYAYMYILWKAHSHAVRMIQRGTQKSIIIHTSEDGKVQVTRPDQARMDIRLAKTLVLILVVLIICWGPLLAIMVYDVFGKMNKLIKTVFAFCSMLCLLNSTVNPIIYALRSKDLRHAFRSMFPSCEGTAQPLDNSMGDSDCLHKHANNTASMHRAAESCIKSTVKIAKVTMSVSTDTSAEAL

| Structure (SMILES) | Latency to maximal effect [1] | Maximal hypotension (difference in mean arterial pressure before and after drug) [1] | Time of recovery [1] | Analgesia, ED50 (mice) | further results |
| --- | --- | --- | --- | --- | --- |
| CCCCC/C=C\C/C=C\C/C=C\C/C=C\CCCC(=O)OC(CO)CO [2-Ara-GL, 2-arachidonoyl glycerol] | 7.2 min | 34 mm Hg | 13.0 min | – | – |
| CCCCC/C=C\C/C=C\C/C=C\C/C=C\CCCC(=O)NCCO [ANA, anandamide] | 2.0 min | 15 mm Hg | 7.0 min | – | – |
| CCCCC/C=C\C/C=C\C/C=C\C/C=C\CCCCOC(CO)CO [HU-310, 2-O-Arachidonyl glyceryl ether] | 34.0 min | 105 mm Hg | 75.0 min | 2.8 mg/kg | Reduction of vomiting ([2]; 3.0 mg per kg body weight): 50%; Inhibition of Arachidonic Acid-induced Paw Edema ([3]; dose 5 mg/kg): 70.2%; Inhibition of Arachidonic Acid-induced Paw Edema ([3]; dose 10 mg/kg): 92.2%; Inhibition of Arachidonic Acid-induced Paw Edema ([3]; dose 25 mg/kg): 100.0%; Ki (CB1 receptor): 62.3 ± 3 nM |
| CCCCC/C=C\C/C=C\C/C=C\CCCCCCCOC(CO)CO [HU-314, 2-dihomo-γ-linolenyl glyceryl ether] | – | – | – | 4.6 mg/kg | Reduction of vomiting (in words) ([2]; compared with HU-310): vomiting was also reduced, however to a lesser extent |
| CC[C@@H]1C(=O)OC[C@@H]1Cc1cncn1C [pilocarpine] | – | – | – | – | Delay in the recovery of the original chymotrypsin-induced IOP [4]: 30 h |
